# Assay results taken from patent US9205068B2 (priority 2008, dated 2015).
# Where “and” joins values, the source holds several entries; their conditions need not be identical. Equal entries are not always repeated.
# Columns and labels:
# [1] = test system: Shiga toxin; type: cell-based
# [2] = test system: CT; conditions: in vivo
# [3] = biological target: catalytic subunit of pertussis toxin (PTS1) (Bordetella pertussis, UniProt P04977); type: binding, B. pertussis; conditions: PTS1, 100 μM PBA
# Sequence of catalytic subunit of pertussis toxin (PTS1) (P04977 35-269 limits assumed): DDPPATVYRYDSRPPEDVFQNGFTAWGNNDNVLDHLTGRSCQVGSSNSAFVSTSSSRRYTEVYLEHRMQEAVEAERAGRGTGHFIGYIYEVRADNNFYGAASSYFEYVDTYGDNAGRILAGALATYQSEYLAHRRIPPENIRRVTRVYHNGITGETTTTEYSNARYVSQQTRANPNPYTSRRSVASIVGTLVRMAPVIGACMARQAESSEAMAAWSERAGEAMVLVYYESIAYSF
# [4] = biological target: catalytic A1 polypeptide of cholera toxin (CTA1) (Vibrio cholerae serotype O1, UniProt P01555); type: binding
# Sequence of catalytic A1 polypeptide of cholera toxin (CTA1) (P01555 19-212 limits assumed): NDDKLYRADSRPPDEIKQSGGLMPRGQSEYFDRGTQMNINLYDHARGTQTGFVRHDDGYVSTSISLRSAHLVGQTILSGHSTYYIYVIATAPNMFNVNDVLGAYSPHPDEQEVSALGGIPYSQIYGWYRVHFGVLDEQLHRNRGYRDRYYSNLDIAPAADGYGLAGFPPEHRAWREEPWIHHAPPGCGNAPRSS
# [5] = test system: CT intoxication of CHO cells; type: cell-based
# [6] = in vivo, po; cited from earlier work
# [7] = biological target: cell-binding B subunit of CT (Vibrio cholerae serotype O1, UniProt P01556)
# Sequence of cell-binding B subunit of CT (P01556 22-124 limits assumed): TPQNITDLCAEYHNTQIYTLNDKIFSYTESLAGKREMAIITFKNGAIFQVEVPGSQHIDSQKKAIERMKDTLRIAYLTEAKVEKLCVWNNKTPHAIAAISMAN
# [8] = test system: CTA1 dislocation from the ER to the cytosol of HeLa cells; type: cell-based
# [9] = cited from earlier work
# [10] = biological target: His6-tagged CTA1 (Vibrio cholerae serotype O1, UniProt P01555); type: binding
# Sequence of His6-tagged CTA1 (P01555 19-212 limits assumed): as the sequence (P01555 19-212 limits assumed) above
# [11] = test system: forskolin-stimulated adenylate cyclase activity; type: cell-based
# [12] = test system: CTA1 secretion from intoxicated HeLa cells; type: cell-based
# [13] = biological target: thermolysin (Bacillus thermoproteolyticus, UniProt P00800); type: biochemical
# Sequence of thermolysin (P00800 233-548): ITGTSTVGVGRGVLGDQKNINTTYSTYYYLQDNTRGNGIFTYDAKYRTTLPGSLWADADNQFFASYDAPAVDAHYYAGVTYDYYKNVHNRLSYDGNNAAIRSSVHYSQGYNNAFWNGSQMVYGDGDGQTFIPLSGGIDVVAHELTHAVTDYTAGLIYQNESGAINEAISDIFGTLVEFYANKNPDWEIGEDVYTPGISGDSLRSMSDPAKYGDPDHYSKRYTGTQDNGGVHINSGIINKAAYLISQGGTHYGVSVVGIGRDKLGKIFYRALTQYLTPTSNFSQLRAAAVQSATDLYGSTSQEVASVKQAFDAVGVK
# [14] = test system: 20S proteasome; type: biochemical
# [15] = biological target: interaction between GRP94 and CTA1 (Homo sapiens, UniProt P14625); type: binding
# Sequence of interaction between GRP94 and CTA1 (P14625 22-803 limits assumed): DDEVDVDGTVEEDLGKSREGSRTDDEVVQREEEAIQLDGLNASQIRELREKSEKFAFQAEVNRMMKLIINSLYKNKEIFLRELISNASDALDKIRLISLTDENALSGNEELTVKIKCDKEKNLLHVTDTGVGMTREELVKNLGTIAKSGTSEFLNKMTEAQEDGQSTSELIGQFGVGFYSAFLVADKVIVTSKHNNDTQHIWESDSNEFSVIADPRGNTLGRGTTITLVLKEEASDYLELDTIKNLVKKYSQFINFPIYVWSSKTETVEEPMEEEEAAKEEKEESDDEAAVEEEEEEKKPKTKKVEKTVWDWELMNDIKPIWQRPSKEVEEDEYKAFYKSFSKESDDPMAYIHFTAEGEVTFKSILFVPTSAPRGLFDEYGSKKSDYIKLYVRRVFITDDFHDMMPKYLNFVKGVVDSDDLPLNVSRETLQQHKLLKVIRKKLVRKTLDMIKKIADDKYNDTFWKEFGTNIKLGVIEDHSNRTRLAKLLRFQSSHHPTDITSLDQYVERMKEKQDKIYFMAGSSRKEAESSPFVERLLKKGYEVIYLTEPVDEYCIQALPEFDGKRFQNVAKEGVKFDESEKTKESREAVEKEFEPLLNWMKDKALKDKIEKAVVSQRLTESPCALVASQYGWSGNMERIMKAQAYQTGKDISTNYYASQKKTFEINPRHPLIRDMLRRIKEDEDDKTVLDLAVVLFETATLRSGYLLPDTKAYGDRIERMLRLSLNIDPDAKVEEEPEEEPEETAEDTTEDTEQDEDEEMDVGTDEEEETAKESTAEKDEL
molecule,measurement,setting,value
"O=C([O-])CCCc1ccccc1.[Na+] [PBA, sodium 4-phenylbutyrate]",protection against Shiga toxin,[1],do not protect cultured cells against Shiga toxin
same,CT activity in the ileal loop test system,[2],blocks CT activity in the ileal loop test system
same,transition temperature Far UV,[3],33.0 °C
same,transition temperature Near UV,[3],36.0 °C
same,Melting temperature (Tm) Fluorescence,[4],37.5 °C and 38.5 °C and 41.0 °C
same,Melting temperature (Tm) Near UV,[4],33.0 °C and 35.0 °C
same,CT activity against cultured cells,[5],blocks CT activity against cultured cells in a dose-dependent manner
same,concentration effective against CT intoxication of cultured cells,[5],10 to 100 µM
same,PBA serum levels,[6],"600-1,700 uM"
same,binding to cell-binding B subunit of CT,[7],does not bind
same,cytosolic pool of CTA1 by SPR,[8],less CTA1 was found in the cytosol
OCC(O)CO [glycerol],t1/2 of equilibration across the plasma membrane,[9],5 min
same,CTA1 secondary structure Tm,[10],39±0.5 °C
same,CTA1 tertiary structure transition temperature (Tm),[10],39.5±1 °C
same,initial secondary structure retained at 37° C.,[10],~60%
same,initial tertiary structure retained at 37° C.,[10],58%
same,cAMP relative to cells treated with forskolin alone,[11],105%
same,CTA1 secreted into medium versus untreated cells,[12],twice as much CTA1 as the untreated control cells
same,thermolysin-mediated proteolysis of a-casein,[13],did not prevent the thermolysin-mediated proteolysis of a-casein
same,CT concentration for 50% maximal response,[5],35 ng of CT/ml
same,CT intoxication (cAMP response),[5],resistant to CT
same,a-casein degradation by the 20S proteasome,[14],did not inhibit a-casein degradation by the 20S proteasome
same,cytosolic pool of CTA1 by SPR,[8],failed to generate a positive cytosolic signal for CTA1
same,"cytosolic pool of CTA1 by SPR, time course",[8],could not be detected
same,reduction in cytosolic CTA1,[8],3 fold and 5 fold
same,total cellular pool of CTA1 present in the cytosolic fraction,[8],7±4%
N-ethylcarboxamidoadenosine [NECA],effect on GRP94 binding to CTA1,[15],blocked by both GA and NECA
same,CT intoxication (cAMP response),[5],same response to CT as the untreated cells
same,cytosolic CTA1 by Western blot,[8],unaffected by NECA treatment
same,cytosolic pool of CTA1 by SPR,[8],response comparable to the response from cells intoxicated in the absence of drug treatment
brefeldin A [BfA],CTA1 in the medium by SPR,[12],could not detect an appreciable amount of CTA1 in the medium
same,cytosolic pool of CTA1 by SPR,[8],No signal
